Test results as given in US11999971B2, “Stem cell derived islet differentiation” (Vertex Pharmaceuticals Incorporated, priority 2018, dated 2024).

Legend:
Assay type in all cases: cell-based, human
[1] = tested on: Pdx1 expressing pancreatic progenitor cells (Stage 4/Stage 5 differentiation); test: TNKS/Wnt inhibitor in Stage 4 and/or Stage 5 medium; cell composition at end of Stage 5
Text: (§1) In certain embodiments described herein, induced pluripotent stem cells are differentiated into SC-Di cells or precursors thereof in vitro. An exemplary differentiation protocol is outlined in FIG. 39. Endocrine progenitor cells produced by Stage 5 can comprise a mixture of cell types. For example, the composition can include NKX6.1+/ISL1+β cells, NKX6.1−/ISL1+α cells, NKX6.1−/ISL1− double negative cells, and enterochromaffin (EC) cells (FIG. 18B and FIG. 18C). For example, FIG. 18B and FIG. 18C show a Stage 5 process intermediate cell composition that comprises about 25% NKX6.1+/ISL1+β cells, about 14.5% NKX6.1−/ISL1+α cells, about 42.4% NKX6.1−/ISL1− double negative cells, and about 18.0% enterochromaffin (EC) cells. For certain applications described herein, such as the production of SC-islets, both NKX6.1−/ISL1− double negative (DN)SC-cells and SC-enterochromaffin (EC) cells are off target cell populations. To improve the Stage 5 cellular composition (e.g., increased percentage of NKX6.1+/ISL1+ SC-β cells and NKX6.1−/ISL1+ SC-α cells; decreased percentage of NKX6.1−/ISL1− SC-DN cells and SC-EC cells), modifications to the Stage 4 and/or Stage 5 medium were evaluated (FIG. 19).
As shown in FIGS. 20A-20B and FIGS. 21A-21B, TNKS/Wnt inhibition during Stage 4 increased the percentage of NKX6.1+/ISL1+β cells (FIG. 21A; FIGS. 20A-20B) and decreased the percentage of NKX6.1−/ISL1− double negative cells (FIG. 21B; FIGS. 20A-20B) at the end of stage 5. Multiple TNKS/Wnt inhibitors that increase the percentage of NKX6.1+/ISL1+β cells at the end of Stage 5 at least two-fold over the control were identified (FIG. 28).
FIGS. 30A-30B show TNKS inhibition increases the percentage of NKX6.1+/ISL1+SC-β cells and decreases the percentage of NKX6.1−/ISL1− SC-DN cells at the end of Stage 5 when TNK inhibitor is used through several times points through Stage 4 or Stage 4 through Stage 5, including S4d3-S4d6, S4d3-S5d2, S4d5-S4d6, and S4d5-S5d2.

[2] = tested on: Pdx1 expressing pancreatic progenitor cells (Stage 4 differentiation); test: PKC inhibitor in modified stage 4 medium during S4d5-S4d6; cell composition at end of Stage 5; conditions: for change in percentage of NKX6.1+/ISL1+ β cells at the end of Stage 5: FIG. 33A; for change in percentage of NKX6.1+/ISL1− SC-EC cells at the end of Stage 5: FIG. 33B
[3] = tested on: Pdx1 expressing pancreatic progenitor cells (Stage 4/Stage 5 differentiation); test: PKC activator in Stage 4 and/or Stage 5 medium; FACS analysis of cell composition at end of Stage 5
Text: as §1
To further improve the Stage 5 cellular composition (e.g., increased percentage of NKX6.1+/ISL1+β cells and NKX6.1−/ISL1+α cells; decreased percentage of NKX6.1−/ISL1− double negative cells and enterochromaffin (EC) cells), further modifications to the Stage 4 and/or Stage 5 medium were evaluated (FIG. 19).
As shown in FIGS. 25A-25B and FIG. 27, PKC activation (0.5 μM phorbol 12,13-dibutyrate) during Stage 4 decreases the percentage of VMAT1+ SC-EC cells at the end of Stage 5 from 24.8% to 4.9%.
FIGS. 35A-35B show PKC activation increases the percentage of NKX6.1−/ISL1+ SC-α cells and decreases the percentage of NKX6.1+/ISL1− SC-EC cells at the end of Stage 5 when a PKC activator is used through several times points through Stage 4 or Stage 4 through Stage 5, including S4d3-S4d6, S4d3-S5d2, S4d5-S4d6, and S4d5-S5d2.

Cc1cc(N2C[C@@H](C)N[C@@H](C)C2)ncc1-c1ccc(-c2nc3c(ccn3C)c(=O)[nH]2)cc1 [AZ6102]
change in percentage of NKX6.1+/ISL1+ SC-β cells at the end of stage 5 vs control ([1]; 0.5 μM during S4d5-S4d6, FACS, FIG. 30A): increased
change in percentage of NKX6.1+/ISL1+ SC-β cells at the end of stage 5 vs control ([1]; 0.5 μM during Stage 4 or Stage 5, FIG. 31A): increased
change in percentage of NKX6.1−/ISL1− SC-DN cells at the end of stage 5 vs control ([1]; 0.5 μM during Stage 4 or Stage 5, FIG. 31B): decreased

COc1ccc2c(c1)c(C1=C(c3c[nH]c4ccccc34)C(=O)NC1=O)cn2CCCN(C)C [Go 6983]
change in percentage of NKX6.1+/ISL1+ β cells at the end of Stage 5 [2]: decrease
change in percentage of NKX6.1+/ISL1− SC-EC cells at the end of Stage 5 [2]: decrease

Cn1cc(C2=C(c3cn(CCCSC(=N)N)c4ccccc34)C(=O)NC2=O)c2ccccc21 [Ro 31-8220]
change in percentage of NKX6.1+/ISL1+ β cells at the end of Stage 5 [2]: decrease
change in percentage of NKX6.1+/ISL1− SC-EC cells at the end of Stage 5 [2]: decrease

CN1CCN(c2nc(C3=C(c4c[nH]c5ccccc45)C(=O)NC3=O)c3ccccc3n2)CC1 [Sotrastaurin]
change in percentage of NKX6.1+/ISL1+ β cells at the end of Stage 5 [2]: decrease
change in percentage of NKX6.1+/ISL1− SC-EC cells at the end of Stage 5 [2]: decrease

CCCC(=O)O[C@@H]1[C@@H](C)[C@@]2(O)[C@@H](C=C(CO)C[C@]3(O)C(=O)C(C)=C[C@@H]23)[C@@H]2C(C)(C)[C@]12OC(=O)CCC [phorbol 12,13-dibutyrate, Phorbol 12,13-dibutyrate]
percentage of NKX6.1+/ISL1− SC-EC cells at the end of Stage 5 ([3]; 0.5 μM during S4d5-S5d2, control 32.1%): 14.7%
percentage of NKX6.1−/ISL1+ SC-α cells at the end of Stage 5 ([3]; 0.5 μM during S4d5-S5d2, control printed 1 1.3%): 38.2%
percentage of glucagon+ SC-α cells at the end of Stage 5 ([3]; 0.5 μM during Stage 4, control 5.7%): 23.7%
percentage of ARX+ SC-α cells at the end of Stage 5 ([3]; 0.5 μM during Stage 4, control 10.4%): 38.4%
percentage of VMAT1+ SC-EC cells at the end of Stage 5 ([3]; 0.5 μM during Stage 4, control 24.8%): 4.9%
percentage of CDX2+ SC-EC cells at the end of Stage 5 ([3]; 0.5 μM during Stage 4, control 66.4%): 21.5%
change in percentage of glucagon positive SC-α cells at the end of stage 5 vs control ([3]; 0.5 μM during stage 4, FACS, FIG. 23): increased
change in percentage of ARX positive SC-α cells at the end of stage 5 vs control ([3]; 0.5 μM during stage 4, FACS, FIG. 24): increased
change in percentage of VMAT1 positive SC-EC cells at the end of stage 5 vs control ([3]; 0.5 μM during stage 4, FACS, FIG. 25): decreased
change in percentage of CDX2 positive SC-EC cells at the end of stage 5 vs control ([3]; 0.5 μM during stage 4, FACS, FIG. 26): decreased
